The subject of assay [1] is Canis familiaris. Briefly: Diuretic activity in mongrel dog assessed as excretion of sodium ion at 10 mg/kg, iv measured after 15 and 45 mins (reference value: 13 to 54 uequiv/min). The format is functional, Canis lupus familiaris, Urine.
Assay [2] deals with Canis familiaris. Nature of the assay: Diuretic activity in mongrel dog assessed as excretion of potassium ion at 10 mg/kg, iv measured after 15 and 45 mins (reference value: 16 to 37 uequiv/min). The format is functional, Canis lupus familiaris, Urine.
The subject of assay [3] is Canis familiaris. Briefly: Diuretic activity in mongrel dog assessed as urine volume at 10 mg/kg, iv measured after 15 and 45 mins (reference value: 1 to 2 ml/min). The format is functional, Canis lupus familiaris.
For assay [4], the system named is Canis familiaris. Nature of the assay: Diuretic activity in mongrel dog assessed as excretion of chloride ion at 10 mg/kg, iv measured after 15 and 45 mins (reference value: 4 to 64 uequiv/min). Format: functional, Canis lupus familiaris, Urine.
The subject of assay [5] is Canis familiaris. Nature of the assay: Diuretic activity in mongrel dog assessed as urine volume at 5 mg/kg, iv measured after 15 and 45 mins (reference value: 1 to 2 ml/min). Format: functional, Canis lupus familiaris.
For assay [6], the system named is Canis familiaris. Nature of the assay: Diuretic activity in mongrel dog assessed as excretion of sodium ion at 5 mg/kg, iv measured after 15 and 45 mins (reference value: 5 to 99 uequiv/min). Format: functional, Canis lupus familiaris, Urine.
Assay [7] has as its system Canis familiaris. Briefly: Diuretic activity in mongrel dog assessed as excretion of chloride ion at 5 mg/kg, iv measured after 15 and 45 mins (reference value: 7 to 13 uequiv/min). Format: functional, Canis lupus familiaris, Urine.
Assay [8] concerns Canis familiaris. Nature of the assay: Diuretic activity in mongrel dog assessed as excretion of potassium ion at 5 mg/kg, iv measured after 15 and 45 mins (reference value: 15 to 55 uequiv/min). Format: functional, Canis lupus familiaris, Urine.
Assay [9] concerns Canis familiaris. Briefly: Diuretic activity in mongrel dog assessed as urine volume at 0.1 mg/kg, iv measured after 15 and 45 mins (reference value: 1 to 3 ml/min). The format is functional, Canis lupus familiaris.
Assay [10] concerns Canis familiaris. Nature of the assay: Diuretic activity in mongrel dog assessed as excretion of sodium ion at 0.1 mg/kg, iv measured after 15 and 45 mins (reference value: 36 to 73 uequiv/min). Format: functional, Canis lupus familiaris, Urine.
For assay [11], the system named is Canis familiaris. Briefly: Diuretic activity in mongrel dog assessed as excretion of potassium ion at 0.1 mg/kg, iv measured after 15 and 45 mins (reference value: 14 to 35 uequiv/min). Format: functional, Canis lupus familiaris, Urine.
Assay [12] relates to Canis familiaris. Nature of the assay: Diuretic activity in mongrel dog assessed as excretion of chloride ion at 0.1 mg/kg, iv measured after 15 and 45 mins (reference value: 14 to 48 uequiv/min). The format is functional, Canis lupus familiaris, Urine.
For assay [13], the system named is Canis familiaris. Briefly: Diuretic activity in mongrel dog assessed as excretion of potassium ion at 1 mg/kg, iv measured after 15 and 45 mins (reference value: 46 to 28 uequiv/min). Format: functional, Canis lupus familiaris, Urine.
The subject of assay [14] is Canis familiaris. Briefly: Diuretic activity in mongrel dog assessed as excretion of chloride ion at 1 mg/kg, iv measured after 15 and 45 mins (reference value: 10 to 26 uequiv/min). Format: functional, Canis lupus familiaris, Urine.
In assay [15] the test system is Canis familiaris. Briefly: Diuretic activity in mongrel dog assessed as urine volume at 1 mg/kg, iv measured after 15 and 45 mins (reference value: 1 to 4 ml/min). The format is functional, Canis lupus familiaris.
Assay [16] deals with Canis familiaris. Briefly: Diuretic activity in mongrel dog assessed as excretion of sodium ion at 1 mg/kg, iv measured after 15 and 45 mins (reference value: 26 to 58 uequiv/min). Format: functional, Canis lupus familiaris, Urine.
Assay [17] concerns Canis familiaris. Briefly: Diuretic activity in mongrel dog assessed as excretion of sodium ion per 6 hrs at 2 mg/kg, po (reference value: 2 mequiv/min). Format: functional, Canis lupus familiaris, Urine.
The test system of assay [18] is Canis familiaris. Briefly: Diuretic activity in mongrel dog assessed as urine volume per 6 hrs at 2 mg/kg, po (reference value: 180 ml). Format: functional, Canis lupus familiaris.
Assay [19] concerns Canis familiaris. Briefly: Diuretic activity in mongrel dog assessed as excretion of chloride ion per 6 hrs at 2 mg/kg, po (reference value: 2 mequiv/min). Format: functional, Canis lupus familiaris, Urine.
Assay [20] has as its system Canis familiaris. Briefly: Diuretic activity in mongrel dog assessed as excretion of potassium ion per 6 hrs at 1 mg/kg, po (reference value: 1 mequiv/min). The format is functional, Canis lupus familiaris, Urine.
Assay [21] deals with Canis familiaris. Nature of the assay: Diuretic activity in mongrel dog assessed as urine volume per 6 hrs at 1 mg/kg, po (reference value: 180 ml). The format is functional, Canis lupus familiaris.
For assay [22], the system named is Canis familiaris. Briefly: Diuretic activity in mongrel dog assessed as excretion of sodium ion per 6 hrs at 1 mg/kg, po (reference value: 2 mequiv/min). Format: functional, Canis lupus familiaris, Urine.
Assay [23] deals with Canis familiaris. Nature of the assay: Diuretic activity in mongrel dog assessed as excretion of chloride ion per 6 hrs at 1 mg/kg, po (reference value: 2 mequiv/min). The format is functional, Canis lupus familiaris, Urine.
The subject of assay [24] is Canis familiaris. Nature of the assay: Diuretic activity in mongrel dog assessed as excretion of potassium ion per 6 hrs at 2 mg/kg, po (reference value: 1 mequiv/min). Format: functional, Canis lupus familiaris, Urine.
Assay [25] concerns Canis familiaris. Nature of the assay: Diuretic activity in mongrel dog assessed as excretion of potassium ion at 25 mg/kg, iv measured after 15 and 45 mins (reference value: 42 uequiv/min). The format is functional, Canis lupus familiaris, Urine.
Assay [26] concerns Canis familiaris. Briefly: Diuretic activity in mongrel dog assessed as excretion of chloride ion at 25 mg/kg, iv measured after 15 and 45 mins (reference value: 6 uequiv/min). Format: functional, Canis lupus familiaris, Urine.
Assay [27] concerns Canis familiaris. Nature of the assay: Diuretic activity in mongrel dog assessed as urine volume at 25 mg/kg, iv measured after 15 and 45 mins (reference value: 5 ml/min). Format: functional, Canis lupus familiaris.
Assay [28] concerns Canis familiaris. Nature of the assay: Diuretic activity in mongrel dog assessed as excretion of sodium ion at 25 mg/kg, iv measured after 15 and 45 mins (reference value: 42 uequiv/min). Format: functional, Canis lupus familiaris, Urine.

This note sets out measurements from ChEMBL document CHEMBL3271942, “(Vinylaryloxy)acetic acids. A new class of diuretic agents. 2. (4-(3-Oxo-1-alkenyl)phenoxy)acetic acids” (1976).

Structures are written as SMILES.

With `CC(=O)/C=C/c1ccc(OCC(=O)O)cc1`, the Activity in the assay on Canis familiaris [1] was 91 uEq/min; in the assay with Canis familiaris [2], 50 uEq/min; in the assay with Canis familiaris [3], 5 mL/min; with Canis familiaris [4], 55 uEq/min.

For the molecule `CC(=O)/C=C/c1ccc(OCC(=O)O)c(Cl)c1Cl`, the Activity with Canis familiaris [5] was 8 mL/min; in the assay with Canis familiaris [6] it was 911 uEq/min; with Canis familiaris [7], 1078 uEq/min; with Canis familiaris [8] it was 76 uEq/min.

Take `COc1cc(/C=C/C(C)=O)ccc1OCC(=O)O`: the Activity was determined as 1 mL/min in the assay with Canis familiaris [5], 13 uEq/min with Canis familiaris [6], 27 uEq/min with Canis familiaris [7] and 36 uEq/min in the assay with Canis familiaris [8].

As for `O=C(O)COc1ccc(/C=C2\CCC2=O)c(Cl)c1Cl`, the Activity in the assay on Canis familiaris [1] was determined as 833 uEq/min; with Canis familiaris [2], 93 uEq/min; in the assay with Canis familiaris [3], 8 mL/min; with Canis familiaris [4], 822 uEq/min; with Canis familiaris [9] it was 9 mL/min; in the assay on Canis familiaris [10] it was 393 uEq/min. Also, the Activity in the assay with Canis familiaris [11] is 89 uEq/min; in the assay on Canis familiaris [12], 408 uEq/min.

On to `O=C(O)COc1ccc(/C=C2\CCCC2=O)c(Cl)c1Cl`, for which the Activity in the assay with Canis familiaris [13] was 74 uEq/min; in the assay with Canis familiaris [14], 330 uEq/min; in the assay on Canis familiaris [15], 4 mL/min; in the assay on Canis familiaris [16], 298 uEq/min.

On to `CC(=O)/C(C)=C/c1ccc(OCC(=O)O)c(Cl)c1Cl`, for which the Activity is 16 milliequivalent with Canis familiaris [17]; 10 mL/min in the assay on Canis familiaris [5]; 1096 uEq/min with Canis familiaris [6]; 506 mL with Canis familiaris [18]; 21 milliequivalent in the assay with Canis familiaris [19]; 5 milliequivalent in the assay with Canis familiaris [20]. For the same molecule, the Activity with Canis familiaris [7] was found to be 1140 uEq/min; with Canis familiaris [21], 422 mL; in the assay with Canis familiaris [22], 9 milliequivalent; with Canis familiaris [23], 9 milliequivalent; with Canis familiaris [24], 3 milliequivalent; in the assay with Canis familiaris [8] it was 132 uEq/min.

With `CCC(=O)/C(C)=C/c1ccc(OCC(=O)O)c(Cl)c1Cl`, the Activity in the assay with Canis familiaris [1] worked out at 79 uEq/min; in the assay with Canis familiaris [2] it was 42 uEq/min; with Canis familiaris [3], 2 mL/min; with Canis familiaris [4] it was 67 uEq/min.

For the molecule `CC(=O)/C=C/c1ccc(OCC(=O)O)cc1Cl`, the Activity in the assay with Canis familiaris [1] was determined as 265 uEq/min; in the assay on Canis familiaris [2], 79 uEq/min; in the assay on Canis familiaris [3] it was 3 mL/min; in the assay on Canis familiaris [4] it was 258 uEq/min.

With `CCC(=O)/C=C/c1ccc(OCC(=O)O)c(Cl)c1Cl`, the Activity amounted to 973 uEq/min in the assay on Canis familiaris [1], 118 uEq/min in the assay with Canis familiaris [2], 8 mL/min with Canis familiaris [3] and 1089 uEq/min with Canis familiaris [4].

For the molecule `C/C(C=O)=C\c1ccc(OCC(=O)O)c(Cl)c1Cl`, the Activity in the assay on Canis familiaris [5] stood at 3 mL/min; in the assay on Canis familiaris [6], 140 uEq/min; in the assay on Canis familiaris [25], 86 uEq/min; with Canis familiaris [26], 542 uEq/min; in the assay on Canis familiaris [7], 130 uEq/min; in the assay with Canis familiaris [27], 5 mL/min. Also, the Activity is given as 449 uEq/min with Canis familiaris [28] and 51 uEq/min in the assay on Canis familiaris [8].

As for `O=C(O)COc1ccc(/C=C2\CCCCC2=O)c(Cl)c1Cl`, the Activity with Canis familiaris [5] came out at 12 mL/min; in the assay on Canis familiaris [6] it was 1306 uEq/min; in the assay on Canis familiaris [7], 1340 uEq/min; with Canis familiaris [8], 119 uEq/min.

For `CC(=O)C(=Cc1ccc(OCC(=O)O)c(Cl)c1Cl)C(C)=O`, the Activity stood at 104 uEq/min with Canis familiaris [13]; 9 mL/min in the assay on Canis familiaris [9]; 11 mL/min in the assay with Canis familiaris [15]; 984 uEq/min with Canis familiaris [10]; 87 uEq/min in the assay with Canis familiaris [11].

As for `C=C(CC)C(=O)c1ccc(OCC(=O)O)c(Cl)c1Cl` [ETHACRYNIC ACID], the Activity stood at 2989 uEq/min in the assay on Canis familiaris [1]; 52 uEq/min with Canis familiaris [13]; 194 uEq/min in the assay with Canis familiaris [2]; 22 mL/min in the assay with Canis familiaris [3]; 3324 uEq/min with Canis familiaris [4]; 5 milliequivalent in the assay on Canis familiaris [20]. The Activity in the assay with Canis familiaris [14] amounted to 244 uEq/min; in the assay on Canis familiaris [15] it was 6 mL/min; with Canis familiaris [21] it was 560 mL; in the assay on Canis familiaris [16], 188 uEq/min; in the assay with Canis familiaris [22], 21 milliequivalent; in the assay with Canis familiaris [23] it was 26 milliequivalent.

Regarding `NS(=O)(=O)c1cc(C(=O)O)c(NCc2ccco2)cc1Cl` [FUROSEMIDE], the Activity stood at 4 milliequivalent in the assay on Canis familiaris [20], 624 mL with Canis familiaris [21], 19 milliequivalent with Canis familiaris [22] and 18 milliequivalent with Canis familiaris [23].
